Test results reported in PMC3500524 (Cancer cell, 2012).

Legend:
G6PD = G6PD (Homo sapiens, UniProt P11413); test: in vitro G6PD enzyme activity assay; assay type: biochemical; conditions: increasing concentrations; H1299 cell lysates or rG6PD
6PGD [1] = molecular target: T1, 6PGD (Homo sapiens, UniProt P52209); test: thermal melt shift assay of 6PGD with ligand; assay type: binding; conditions: read-out: Kd for protein (6PGD)-ligand interaction
T1 sequence (P52209 1-483): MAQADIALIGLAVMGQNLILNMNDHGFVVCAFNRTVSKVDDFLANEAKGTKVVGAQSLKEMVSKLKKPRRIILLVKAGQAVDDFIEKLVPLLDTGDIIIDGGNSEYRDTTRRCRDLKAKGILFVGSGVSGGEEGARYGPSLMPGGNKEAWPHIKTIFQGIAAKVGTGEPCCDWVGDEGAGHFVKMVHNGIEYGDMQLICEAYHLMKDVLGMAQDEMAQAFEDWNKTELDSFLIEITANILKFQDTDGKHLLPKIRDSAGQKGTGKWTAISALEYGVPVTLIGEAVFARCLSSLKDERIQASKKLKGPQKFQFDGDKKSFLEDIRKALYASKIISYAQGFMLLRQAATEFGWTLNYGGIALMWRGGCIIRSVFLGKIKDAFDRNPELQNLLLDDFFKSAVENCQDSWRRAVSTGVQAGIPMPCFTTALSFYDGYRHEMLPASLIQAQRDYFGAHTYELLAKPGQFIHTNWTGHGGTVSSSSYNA

6PGD [2] = molecular target: T1, 6PGD; test: in vitro 6PGD enzyme activity assay; assay type: biochemical; conditions: H1299 cell lysates or r6PGD
6PGD [3] = molecular target: T1, 6PGD; test: 6PGD enzyme kinetics
[4] = molecular target: purified human PGAM1 proteins (Homo sapiens, UniProt P18669); test: PGAM1 enzyme assay; assay type: biochemical; conditions: comparison among alizarin and derivatives
PHGDH = molecular target: T2, PHGDH (Homo sapiens, UniProt O43175); test: PHGDH enzyme activity assay; assay type: biochemical
T2 sequence (O43175 1-533): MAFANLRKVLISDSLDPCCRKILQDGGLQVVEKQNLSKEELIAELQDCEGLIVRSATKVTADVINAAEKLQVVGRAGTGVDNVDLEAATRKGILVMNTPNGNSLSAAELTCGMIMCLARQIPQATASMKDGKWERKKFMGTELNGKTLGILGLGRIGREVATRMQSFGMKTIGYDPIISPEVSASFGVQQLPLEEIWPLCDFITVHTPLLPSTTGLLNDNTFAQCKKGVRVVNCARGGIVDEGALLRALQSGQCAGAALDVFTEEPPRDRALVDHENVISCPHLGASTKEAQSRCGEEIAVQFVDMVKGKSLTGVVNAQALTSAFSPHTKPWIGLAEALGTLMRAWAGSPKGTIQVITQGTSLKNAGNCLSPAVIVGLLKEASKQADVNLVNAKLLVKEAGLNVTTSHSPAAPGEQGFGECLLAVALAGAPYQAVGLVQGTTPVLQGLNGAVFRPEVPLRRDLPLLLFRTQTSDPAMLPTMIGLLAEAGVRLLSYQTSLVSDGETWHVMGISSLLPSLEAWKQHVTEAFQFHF

PGAM1 = PGAM1 (Homo sapiens, UniProt P18669); conditions: intact cells, ref Evans et al., 2007, 2005; cited from earlier work
cancer cells = conditions: ref Engel et al., 2004; Evans et al., 2005; cited from earlier work
[5] = test system: primary leukemia cells from human patients; test: treatment of primary leukemia cells from human patients; assay type: cell-based
H1299 cells [6] = test: cell proliferation of H1299 cells; assay type: cell-based, human
nude mice = test: toxicity studies in nude mice; assay type: in vivo
[7] = test system: diverse human cancer and leukemia cells; test: cell proliferation / viability by trypan blue exclusion; assay type: cell-based
H1299 cells [8] = test: metabolism of H1299 cells under inhibitor treatment; assay type: cell-based, human
H1299 xenograft = H1299 xenograft in nude mice; assay type: in vivo, mouse
[9] = test system: human dermal fibroblasts (HDF), human foreskin fibroblasts (HFF), HaCaT keratinocyte cells, melanocyte PIG1 cells; test: cell proliferation / viability of normal proliferating human cells; assay type: cell-based
[10] = test system: human leukemia KG1a cells; test: proliferation of KG1a cells; assay type: cell-based; conditions: dose-dependent
[11] = primary leukemia cells, representative AML patient
[12] = samples from 7 (1 CML and 6 AML) out of 8 leukemia patients

Chain of G6PD (P11413 whole entry): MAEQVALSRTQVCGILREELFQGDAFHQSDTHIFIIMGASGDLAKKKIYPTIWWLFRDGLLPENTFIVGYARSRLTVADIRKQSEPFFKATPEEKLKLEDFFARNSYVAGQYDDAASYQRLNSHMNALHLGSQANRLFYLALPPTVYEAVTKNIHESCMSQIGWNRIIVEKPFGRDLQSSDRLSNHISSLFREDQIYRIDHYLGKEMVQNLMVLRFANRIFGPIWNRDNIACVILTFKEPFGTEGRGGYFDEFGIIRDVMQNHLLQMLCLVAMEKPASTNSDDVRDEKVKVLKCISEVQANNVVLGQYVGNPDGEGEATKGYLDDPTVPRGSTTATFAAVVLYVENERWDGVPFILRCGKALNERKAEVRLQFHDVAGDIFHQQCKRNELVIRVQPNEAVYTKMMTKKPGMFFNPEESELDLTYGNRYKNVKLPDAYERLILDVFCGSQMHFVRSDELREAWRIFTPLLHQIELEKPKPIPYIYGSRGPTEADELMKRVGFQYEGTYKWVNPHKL
Chain of PGAM1 (P18669 whole entry): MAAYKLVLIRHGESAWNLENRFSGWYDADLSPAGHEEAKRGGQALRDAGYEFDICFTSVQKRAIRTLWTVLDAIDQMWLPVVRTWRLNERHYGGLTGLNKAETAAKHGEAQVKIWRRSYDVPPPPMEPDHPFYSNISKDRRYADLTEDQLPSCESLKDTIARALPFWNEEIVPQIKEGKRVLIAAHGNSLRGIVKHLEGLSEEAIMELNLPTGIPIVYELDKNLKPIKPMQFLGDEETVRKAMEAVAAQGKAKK
Chain of purified human PGAM1 proteins (P18669 whole entry): as above

## O=C(O)[C@H](O)COP(=O)(O)O [3-PG, 3-phosphoglycerate]
G6PD
  G6PD activity: did not significantly affect G6PD activity
6PGD [1]
  Kd: 460 ± 40 µM
6PGD [2]; 3-PG ~60μM
  6PGD enzyme activity: do not significantly affect 6PGD enzyme activity
6PGD [2]; 3-PG ~250μM
  6PGD enzyme activity: decreased enzyme activity of 6PGD
6PGD [3]; Lineweaver-Burk plot, 3-PG ~250μM, 6-PG ~35μM
  mode of 6PGD inhibition: competitive inhibitor of 6PGD
6PGD [3]; read-out: inhibition constant (Ki) of 6PGD, Dixon plot
  Ki: 489 ± 13 µM

## O=C1c2ccccc2C(=O)c2c1cc(S(=O)(=O)O)c(O)c2O [alizarin Red S]
[4]
  relative potency as PGAM1 inhibitor in vitro: more potent PGAM1 inhibitor

## O=C(O)[C@@H](CO)OP(=O)(O)O [2-PG, 2-phosphoglycerate]
PHGDH; 2-PG ~15μM
  PHGDH activity: did not significantly affect PHGDH activity
PHGDH; 2-PG ~45μM or ~60μM, H1299 PGAM1 knockdown cell lysates
  PHGDH enzyme activity: higher PHGDH enzyme activity
PHGDH; increasing concentrations of 2-PG
  enzyme activity of recombinant PHGDH (rPHGDH): increased enzyme activity of recombinant PHGDH
6PGD [2]; 2-PG
  6PGD enzyme activity: did not affect 6PGD enzyme activity

## C#CCCCC(=O)OC(C)(C)C1CCC2(CO2)C(OC(=O)NC(Cc2c[nH]c3ccccc23)C(=O)OCc2ccccc2)C1 (stereo not shown) [MJE3]
PGAM1
  PGAM1 activity: specifically inhibits PGAM1 activity exclusively in intact cells
Cancer cells
  cancer cell proliferation: attenuates cancer cell proliferation

## O=C1c2ccccc2C(=O)c2c1cc(S(=O)(=O)Nc1ccc(C(F)(F)F)cc1)c(O)c2O [PGMI-004A]
[5]; [11]
  2-PG levels: decreased 2-PG levels
  3-PG levels: increased 3-PG
[5]; [12]
  PGAM1 activity: reduced PGAM1 activity
  cell viability: decreased cell viability
  lactate production: reduced
H1299 cells [6]
  cell proliferation: reduced
Nude mice
  histopathological analyses vs vehicle-treated group: no notable differences
Nude mice; 100mg/kg/day intraperitoneally, 4 weeks
  tolerability of chronic injection: well-tolerated dose
Nude mice; 100mg/kg/day, 7 days
  body weight, complete blood counts (CBC), hematopoietic properties: did not result in significant alteration
[7]
  cell proliferation: decreased cell proliferation
H1299 cells [8]
  2-PG levels: decreased 2-PG
  3-PG levels: increased 3-PG levels
  biosynthesis of RNA: reduced biosynthesis
  biosynthesis of lipids: reduced biosynthesis of lipids
  intracellular ATP levels: no significant effect on intracellular ATP levels
  lactate production: significantly reduced lactate production
  oxidative PPP flux: decreased oxidative PPP flux
H1299 xenograft; 100mg/kg/day
  PGAM1 enzyme activity in resected tumors: effectively inhibits PGAM1 enzyme activity in tumors
H1299 xenograft; 100mg/kg/day i.p., 21 days, vs vehicle
  tumor growth and tumor size: significantly decreased tumor growth and tumor size
[9]
  non-specific toxicity (cell proliferation) in normal cells: minimal non-specific toxicity

## O=C1c2ccccc2C(=O)c2c1ccc(O)c2O [alizarin, 1,2-dihydroxyanthraquinone]
[10]
  cell proliferation: decreased proliferation
